ChEMBL document CHEMBL1146474, “Design, synthesis, and bioactivities of steroid-linked taxol analogues as potential targeted drugs for prostate and breast cancer” (J Nat Prod, 2004)

How the values were obtained:
MDA-MB-231 [1] = assay: Antiproliferative activity against human MDA-MB-231 cells assessed as inhibition of cell survival after 48 hrs by MTS method; format: functional
MCF7 [2] = assay: Antiproliferative activity against human MCF7 cells assessed as reduction of cell survival after 48 hrs by MTS method; format: functional
MCF7 [3] = assay: Antiproliferative activity against human MCF7 cells assessed as reduction of cell survival after 7 days by MTS method; format: functional
[4] = Induction of tubulin assembly at 0.2 uM relative to taxol
[5] = Induction of tubulin assembly at 1 uM relative to taxol
A2780 = assay: cells; conditions: Homo sapiens, A2780, 48 h
PC-3 = assay: cells; conditions: Homo sapiens, PC-3, 48 h
MDA-MB-231 [6] = assay: cells; conditions: Homo sapiens, MDA-MB-231, 48 h
MCF7 [7] = assay: cells; conditions: Homo sapiens, MCF7, 48 h

SMILES	inhibition (INH) (MDA-MB-231 [1]) [%]	Activity (MCF7 [2]) [%]	Activity (MCF7 [3]) [%]	Activity [4] [%]	Activity [5] [%]	IC50 (A2780) [nM]	IC50 (PC-3) [nM]	IC50 (MDA-MB-231 [6]) [nM]	IC50 (MCF7 [7]) [nM]
CC(=O)O[C@H]1C(=O)[C@@]2(C)[C@H]([C@H](OC(=O)c3ccccc3)[C@]3(O)C[C@H](OC(=O)[C@H](O)[C@@H](NC(=O)c4ccccc4)c4ccccc4)C(C)=C1C3(C)C)[C@]1(OC(C)=O)CO[C@@H]1C[C@@H]2O [PACLITAXEL]	85	20	70						
CC(=O)O[C@H]1C(=O)[C@@]2(C)[C@H]([C@H](OC(=O)c3ccccc3)[C@]3(O)C[C@H](OC(=O)[C@H](OC(=O)/C=C/C[C@@H]4C[C@H]5[C@@H]6CCc7cc(O)ccc7[C@H]6CC[C@]5(C)[C@H]4O)[C@@H](NC(=O)c4ccccc4)c4ccccc4)C(C)=C1C3(C)C)[C@]1(OC(C)=O)CO[C@@H]1C[C@@H]2O				45	55				
CC(=O)O[C@H]1C(=O)[C@]2(C)[C@@H](OC(=O)CCC(=O)O[C@@H]3C[C@]4(C)[C@@H](O)CC[C@H]4[C@@H]4CCc5cc(O)ccc5[C@H]43)C[C@H]3OC[C@@]3(OC(C)=O)[C@H]2[C@H](OC(=O)c2ccccc2)[C@]2(O)C[C@H](OC(=O)[C@H](O)[C@@H](NC(=O)c3ccccc3)c3ccccc3)C(C)=C1C2(C)C	85	20	70	100	100	2900	320	780	557
CC(=O)O[C@H]1C(=O)[C@@]2(C)[C@H]([C@H](OC(=O)c3ccccc3)[C@]3(O)C[C@H](OC(=O)[C@H](OC(=O)CCC(=O)O[C@@H]4C[C@]5(C)[C@@H](O)CC[C@H]5[C@@H]5CCc6cc(O)ccc6[C@H]54)[C@@H](NC(=O)c4ccccc4)c4ccccc4)C(C)=C1C3(C)C)[C@]1(OC(C)=O)CO[C@@H]1C[C@@H]2O				60	60				
CC(=O)O[C@H]1C(=O)[C@]2(C)[C@@H](OC(=O)/C=C/C[C@@H]3C[C@H]4[C@@H]5CCc6cc(O)ccc6[C@H]5CC[C@]4(C)[C@H]3O)C[C@H]3OC[C@@]3(OC(C)=O)[C@H]2[C@H](OC(=O)c2ccccc2)[C@]2(O)C[C@H](OC(=O)[C@H](O)[C@@H](NC(=O)c3ccccc3)c3ccccc3)C(C)=C1C2(C)C				100	100	8300	120	2200	1600
CC(=O)O[C@@]12CO[C@@H]1C[C@H](O)[C@@]1(C)C(=O)[C@H](OC(=O)CCC(=O)O[C@@H]3C[C@]4(C)[C@@H](O)CC[C@H]4[C@@H]4CCc5cc(O)ccc5[C@H]43)C3=C(C)[C@@H](OC(=O)[C@H](O)[C@@H](NC(=O)c4ccccc4)c4ccccc4)C[C@@](O)([C@@H](OC(=O)c4ccccc4)[C@H]21)C3(C)C				100	100	1900	68	304	103
